Data as given in publication PMC8419391 (Journal of Pharmaceutical Investigation, 2021).
Converted amounts (≈) assume the structure as drawn. Like-named read-outs stand apart in the source and are kept apart here.

What was measured:
Candida albicans EMCC105 [1] = assay: Turbidity assay; format: cell-based
Candida albicans EMCC105 [2] = assay: Agar well diffusion assay; format: cell-based
[3] = test system: Staphylococcus aureus ATCC25923; assay: Turbidity assay; format: cell-based
[4] = In vivo HCQ toxicity elimination: CBC profile and blood chemistry; conditions: mice, oral
ACE2 protein = ACE2 protein (Homo sapiens, UniProt Q9BYF1); assay: ACE2 binding
BetaCoV E-gene = format: cell-based, SARS-CoV2
[5] = test system: Streptococcus pyogenes EMCC1772; assay: Agar well diffusion assay; format: cell-based
[6] = test system: Staphylococcus aureus ATCC25923; assay: Agar well diffusion assay; format: cell-based
[7] = test system: klebsila pneumonia ATCC700603; assay: Agar well diffusion assay; format: cell-based
BetaCoV RdRp gene = format: cell-based, SARS-CoV2
SARS-CoV2 ORF gene = format: cell-based
[8] = biological target: papain-like proteinase (PLpro) (Severe acute respiratory syndrome coronavirus 2, UniProt P0DTD1); assay: Papain-like proteinase; format: biochemical, SARS-CoV2; conditions: read-out: PLpro (Inhibition %)
white blood cells (WBC) = assay: Elimination of HCQ toxicity: HCQ induced WBC cytotoxicity; format: cell-based; conditions: HCQ 200 µg/ml
[9] = biological target: SARS-CoV2 RBD / ACE2 protein complex (Severe acute respiratory syndrome coronavirus 2, UniProt P0DTC2); assay: Spike protein RBD-ACE2 complex formation ELISA; format: binding
[10] = test system: klebsila pneumonia ATCC700603; assay: Turbidity assay; format: cell-based
SARS-CoV2 = assay: microbe, parasite or virus in culture; format: cell-based; conditions: for EC50: Severe acute respiratory syndrome coronavirus 2, Vero C1008
red blood cells = assay: Elimination of HCQ toxicity: HCQ induced RBC hemolysis; conditions: HCQ 27.5 µg/ml
[11] = test system: Peripheral blood mononuclear cells (PBMC); assay: Peripheral blood mononuclear cells toxicity; format: cell-based; conditions: Homo sapiens, 24 h, read-out: PBMC IC50 (µg/ml)
human red blood cells = assay: Red blood cells toxicity; format: cell-based; conditions: Erythrocyte, 1 h, read-out: RBC IC50 (µg/ml)
[12] = test system: Streptococcus pyogenes EMCC1772; assay: Turbidity assay; format: cell-based
[13] = ref Zou et al. [2020], cited from earlier work
Antioxidant activity = conditions: DPPH, 30 min in the dark

ACE2 protein, sequence (Q9BYF1 18-805): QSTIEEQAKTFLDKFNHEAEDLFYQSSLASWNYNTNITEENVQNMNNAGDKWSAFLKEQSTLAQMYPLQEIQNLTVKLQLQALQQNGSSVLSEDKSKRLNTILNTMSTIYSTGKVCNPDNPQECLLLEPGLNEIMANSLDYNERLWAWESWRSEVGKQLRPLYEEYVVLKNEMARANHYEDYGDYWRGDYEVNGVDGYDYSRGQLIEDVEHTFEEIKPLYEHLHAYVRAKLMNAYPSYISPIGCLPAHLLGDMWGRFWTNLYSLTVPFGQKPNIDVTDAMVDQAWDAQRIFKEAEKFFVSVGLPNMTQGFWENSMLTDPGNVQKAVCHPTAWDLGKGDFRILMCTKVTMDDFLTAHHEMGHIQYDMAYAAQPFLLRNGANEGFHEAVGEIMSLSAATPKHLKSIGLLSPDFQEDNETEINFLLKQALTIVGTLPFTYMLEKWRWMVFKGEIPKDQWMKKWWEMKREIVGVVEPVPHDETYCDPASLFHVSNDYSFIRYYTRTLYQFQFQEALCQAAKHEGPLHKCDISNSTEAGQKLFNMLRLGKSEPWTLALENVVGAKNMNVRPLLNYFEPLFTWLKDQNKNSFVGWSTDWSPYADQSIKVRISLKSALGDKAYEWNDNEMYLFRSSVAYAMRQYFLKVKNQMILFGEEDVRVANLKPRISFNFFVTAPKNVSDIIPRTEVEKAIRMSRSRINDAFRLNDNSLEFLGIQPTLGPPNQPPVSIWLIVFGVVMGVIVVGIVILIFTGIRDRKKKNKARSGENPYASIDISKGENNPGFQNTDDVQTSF

With `COc1ccc2cc3[n+](cc2c1OC)CCc1cc2c(cc1-3)OCO2` [BER, Berberine chloride hydrate] the MIC (Candida albicans EMCC105 [1]) was 463 µg/mL, the MIC (Candida albicans EMCC105 [2]) was 1850 µg/mL and the MIC [3] was 463 µg/mL. The “prevention of HCQ adverse effect on co-administration with HCQ” value ([4]; blood chemistry) was “moderately prevented”, the “effect on normal CBC parameters” value ([4]; p < 0.05) was “did not affect normal CBC parameters” and the “ACE2 (Binding %)” value (ACE2 protein; 62.5 µg/ml) was 13.10 ± 0.07%. For the same compound, the “ACE2 (Binding %)” value (ACE2 protein; 126 µg/ml) was 13.10 ± 0.90%, the “ACE2 (Binding %)” value (ACE2 protein; 252 µg/ml) was 13.90 ± 1.10% and the “ACE2 (Binding %)” value (ACE2 protein; 504 µg/ml) was 15.60 ± 1.60%. The “ACE2 (Binding %)” value (ACE2 protein; 1008 µg/ml) was 15.60 ± 1.10%, the “E-gene down regulation (%)” value (BetaCoV E-gene; 2.5 µg/ml) was 89.77 ± 3.5% and the E-gene expression (BetaCoV E-gene; 2.5 µg/ml) was 0.102 ± 0.0003. The “E-gene down regulation (%)” value (BetaCoV E-gene; 5 µg/ml) was 99.30 ± 1.8%, the E-gene expression (BetaCoV E-gene; 5 µg/ml) was 0.007 ± 0.0005 and the “E-gene down regulation (%)” value (BetaCoV E-gene; 10 µg/ml) was 99.70 ± 4.5%. The E-gene expression (BetaCoV E-gene; 10 µg/ml) was 0.003 ± 0.0001, the “E-gene down regulation (%)” value (BetaCoV E-gene; 20 µg/ml) was 99.98 ± 3.9% and the E-gene expression (BetaCoV E-gene; 20 µg/ml) was 0.0002 ± 0.00001. The MIC [5] was 463 µg/mL, the MIC [6] was 926 µg/mL and the MIC [7] was 1850 µg/mL. For the same compound, the “RdRp down regulation (%)” value (BetaCoV RdRp gene; 2.5 µg/ml) was 76.67 ± 2.9%, the RdRp expression (BetaCoV RdRp gene; 2.5 µg/ml) was 0.233 ± 0.001 and the “RdRp down regulation (%)” value (BetaCoV RdRp gene; 5 µg/ml) was 79.26 ± 3.5%. The RdRp expression (BetaCoV RdRp gene; 5 µg/ml) was 0.207 ± 0.002, the “RdRp down regulation (%)” value (BetaCoV RdRp gene; 10 µg/ml) was 94.95 ± 6.9% and the RdRp expression (BetaCoV RdRp gene; 10 µg/ml) was 0.050 ± 0.0003. The “RdRp down regulation (%)” value (BetaCoV RdRp gene; 20 µg/ml) was 99.89 ± 3.8%, the RdRp expression (BetaCoV RdRp gene; 20 µg/ml) was 0.001 ± 0.00009 and the “ORF gene down regulation (%)” value (SARS-CoV2 ORF gene; 2.5 µg/ml) was 11.73 ± 0.1%. The ORF gene expression (SARS-CoV2 ORF gene; 2.5 µg/ml) was 0.88 ± 0.001, the “ORF gene down regulation (%)” value (SARS-CoV2 ORF gene; 5 µg/ml) was 21.54 ± 0.2% and the ORF gene expression (SARS-CoV2 ORF gene; 5 µg/ml) was 0.79 ± 0.003. The “ORF gene down regulation (%)” value (SARS-CoV2 ORF gene; 10 µg/ml) was 60.22 ± 0.8%, the ORF gene expression (SARS-CoV2 ORF gene; 10 µg/ml) was 0.39 ± 0.002 and the “ORF gene down regulation (%)” value (SARS-CoV2 ORF gene; 20 µg/ml) was 86.69 ± 0.1%. It also gave an ORF gene expression (SARS-CoV2 ORF gene; 20 µg/ml) of 0.13 ± 0.008, an inhibition at 62.5 µg/mL [8] of 49.8 ± 0.19% and an inhibition at 126 µg/mL [8] of 65.89 ± 0.17%. For the same compound, the inhibition at 252 µg/mL [8] was 78.93 ± 0.36%, the inhibition at 504 µg/mL [8] was 84.8 ± 0.12% and the inhibition at 1008 µg/mL [8] was 93.26 ± 0.73%. The “prevention of HCQ cytotoxic effect towards WBC” value (white blood cells (WBC)) was about 6.7 folds, the “Spike protein- RBD- complex formation (Fold change)” value ([9]; 62.5 µg/ml) was 03.88 ± 0.08 Fold change and the “Spike protein- RBD- complex formation (Fold change)” value ([9]; 126 µg/ml) was 08.00 ± 0.10 Fold change. The “Spike protein- RBD- complex formation (Fold change)” value ([9]; 252 µg/ml) was 08.50 ± 0.00 Fold change, the “Spike protein- RBD- complex formation (Fold change)” value ([9]; 504 µg/ml) was 16.13 ± 0.20 Fold change and the “Spike protein- RBD- complex formation (Fold change)” value ([9]; 1008 µg/ml) was 16.13 ± 0.03 Fold change. The MIC [10] was 463 µg/mL, the “Vero E6 reduction (%)” value (SARS-CoV2) was 80.00 ± 1.7% and the EC50 (SARS-CoV2) was 16.7 ± 0.01 µg/mL. For the same compound, the EC50/IC50% (SARS-CoV2; antiviral EC50 relative to Vero E6 IC50) was 32.9 ± 0.4%, the “decrease of the hemolytic activity induced by HCQ” value (red blood cells) was 42.85% and the IC50 [11] was 22.2 ± 0.9 µg/mL. It also gave an IC50 (human red blood cells) of 1349 ± 10.3 µg/mL and an MIC [12] of 463 µg/mL.

In the case of `CCN(CCO)CCCC(C)Nc1ccnc2cc(Cl)ccc12` (stereo not drawn) [HCQ, hydroxychloroquine], the “oral dose reaching the blood” value ([13]; oral) is given as “about 50%”, the “accumulation in brain and spinal cord tissue, times higher than plasma level” value [13] is given as 30 times and the “accumulation in the liver and lung, times higher than plasma concentration” value [13] is given as 700 times. The “ACE2 (Binding %)” value (ACE2 protein; 12.5 µg/ml) was 09.02 ± 0.50%, the “ACE2 (Binding %)” value (ACE2 protein; 200 µg/ml) was 15.60 ± 1.40% and the “Antioxidants IC50” value (Antioxidant activity) was 362.7 ± 6.7 µg/mL. For the same compound, the inhibition at 12.5 µg/mL [8] was 8.1 ± 0.74%, the inhibition at 25 µg/mL [8] was 11.2 ± 0.39% and the inhibition at 50 µg/mL [8] was 22.5 ± 0.15%. For the same compound, the inhibition at 100 µg/mL [8] was 30 ± 0.23%, the inhibition at 200 µg/mL [8] was 37 ± 0.42% and the EC50/IC50% (SARS-CoV2) was 27.5 ± 0.9%. The “Vero E6 reduction (%)” value (SARS-CoV2) was 76.00 ± 1.8%, the EC50 (SARS-CoV2) was 0.39 ± 0.009 µg/mL (≈ 1.16 µM) and the IC50 [11] was 3.2 ± 0.3 µg/mL (≈ 9.53 µM). For the same compound, the IC50 (human red blood cells) was 52 ± 0.9 µg/mL (≈ 155 µM).
